Experimental data: PubChem BioAssay (NCI)
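Each compound was tested at five concentrations against cells in 96-well plates for 48 hours. At the GI50, growth is halved. The concentration for full growth arrest is given as TGI.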

Experiments:
Test in all cases: NCI tumour cell line growth inhibition, 48 h
[1] = test system: SK-MEL-28 melanoma
[2] = test system: NCI-H23 lung
[3] = test system: HCT-116 colon
[4] = test system: SNB-19 CNS
[5] = test system: U251 CNS
[6] = test system: SF-539 CNS
[7] = test system: HOP-62 NSCLC
[8] = test system: COLO 205 colon
[9] = test system: RXF 393 renal
[10] = test system: LOX IMVI melanoma

Row | SMILES | GI50 [1] [µM] | TGI [1] [µM] | GI50 [2] [µM] | TGI [2] [µM] | GI50 [3] [µM] | TGI [3] [µM] | GI50 [4] [µM] | TGI [4] [µM] | GI50 [5] [µM] | TGI [5] [µM] | GI50 [6] [µM] | TGI [6] [µM] | GI50 [7] [µM] | TGI [7] [µM] | GI50 [8] [µM] | TGI [8] [µM] | GI50 [9] [µM] | TGI [9] [µM] | GI50 [10] [µM] | TGI [10] [µM]
1 | COc1cc(/C=C/C(=O)c2ccc(F)cc2)ccc1OCCCN1CCN(CC(=O)Nc2ccc(Cl)cc2C(=O)c2ccccc2Cl)CC1 | 3.68 | 12.6 | 17.4 | > 100 | 2.23 | 11.1 | 18.9 | 49.2 | 5.01 | 17.3 | 10.2 | 23.3 | 15.5 | 31.9 | 4.47 | 23.8 | 2.84 | 15.8 | 3.97 | 14.6
2 | Cc1[nH]c(=O)nc(Nc2ccc(Cl)cc2)c1C(=O)N1CCN(CCO)CC1 | > 100 | > 100 | 76 | > 100 | 81.9 | > 100 | 33.8 | > 100 | 37.6 | > 100 | 75.9 | > 100 | 27.2 | 77.4 | > 100 | > 100 | 24.4 | 76.8 | > 100 | > 100
3 | COc1cccc(NC(=O)CC(=O)N2N=C(N3c4ccccc4Sc4ccccc43)CC2c2ccccc2)c1 (configuration not stated) |  | > 100 |  | > 100 |  | > 100 |  | > 100 |  | > 100 |  | > 100 |  | > 100 |  | > 100 |  | > 100 |  | > 100
4 | CCCN(CCC)C(=O)C(=O)c1c(N)[nH]n(-c2ccccc2)c1=O |  |  |  | > 100 |  | > 100 |  | > 100 |  | > 100 |  | > 100 |  |  |  | > 100 |  |  |  | > 100
5 | CN(C)C(=O)c1cnc2oc3ccc(O)cc3c2c1-c1ccccc1 | 5.12 | > 25 | 11.5 | > 25 | > 25 | > 25 |  |  | > 25 | > 25 |  |  | > 25 | > 25 |  |  | > 25 | > 25 | > 25 | > 25
6 | COc1cnc2c(c1)C(=O)c1c-2n(CCCNC2=NCCS2)c(=O)c2cc(Cl)ccc12 |  |  | 0.3 | 2.11 | 0.352 | 2.19 |  |  | 0.0546 | 1.82 | 0.475 | 1.8 | 0.0425 | 1.51 | 1.06 | 2.41 | 0.783 | 2.2 |  | 
7 | Cc1ccc(C(=O)NC2CCC2)cc1-c1ccc(C(=O)NCC2CC2)cc1 | > 25 | > 25 | > 25 | > 25 | > 25 | > 25 | > 25 | > 25 | > 25 | > 25 | > 25 | > 25 | > 25 | > 25 | > 25 | > 25 | > 25 | > 25 | > 25 | > 25
8 | CCOC(=O)/C(O)=C(/C(=O)OC)c1ccc(Cl)cc1 |  | > 100 |  | > 100 |  |  |  | > 100 |  | > 100 |  | > 100 |  | > 100 |  | > 100 |  |  |  | > 100
9 | NCCN.O=C([O-])CN1CCOCC1.[OH-].[Pt+4] | > 100 | > 100 | 60.9 | > 100 | > 100 | > 100 | > 100 | > 100 | > 100 | > 100 | > 100 | > 100 | > 100 | > 100 | > 100 | > 100 | > 100 | > 100 | > 100 | > 100
10 | Cc1nn(-c2ccc(Cl)cc2)c2nc3c(nc12)C(=O)C(=O)c1ccccc1-3 | 7.76 | 74.8 | 1.71 | 3.88 | 7.42 | 32.8 | 2.48 | 8.17 | 3.21 | 10.1 | 3.14 | 9.3 | 9.71 | 30.4 | 2.03 | 4.86 | 19.7 | 64.6 | 2.08 | 5.89
11 | COc1cc([N+](=O)[O-])c(OC)cc1-c1nc2sccn2c1/C=N/N=C(N)N | 27.9 | 63.4 | 14.8 | 71.9 | 21.7 | 94.4 | 8.52 | > 100 | 3.66 | 15 | 12 | 46.5 | 13.6 | 46.9 | 66 | > 100 | 50.1 | > 100 | 17.9 | 41.5
12 | Cc1nn(-c2ccc([N+](=O)[O-])cc2)c2ncnc(N/N=C/c3ccccc3O)c12 | 0.443 | 5.53 | 0.864 | 3.76 |  |  | 0.507 | 8.65 | 0.332 | 2.44 | 0.424 | 1.77 | 0.397 | 3.29 | 0.385 | 10.4 | 0.366 | 1.62 | 0.22 | 1.47
13 | C[C@]12CCC(=O)CC1CCCC2=O (some centres not stated) |  | > 100 |  | > 100 |  | > 100 |  | > 100 |  | > 100 |  | > 100 |  | > 100 |  | > 100 |  | > 100 |  | > 100
14 | C=C1c2ccoc2C[C@H]2[C@H]1CC[C@@]1(O)[C@@](C)(C(=O)OC)CCC[C@]21C | 54.2 | > 100 | 44.4 | > 100 | 15.7 | 31.2 | 62.1 | > 100 | 42.4 | > 100 | 69.3 | > 100 | 40.7 | > 100 | 20 | 55 | 48 | > 100 | 17.6 | 36.7
15 | Nc1c(C(=O)c2cccc(C#CCO)c2)cnn1-c1ccc(F)cc1 | > 25 | > 25 | > 25 | > 25 | > 25 | > 25 | > 25 | > 25 | > 25 | > 25 | > 25 | > 25 | > 25 | > 25 | > 25 | > 25 | > 25 | > 25 | > 25 | > 25
16 | COC(=O)c1cc2ccccc2c2c3c(ccc12)OCO3 | 71.3 | 328 | 161 | > 1000 | 194 | > 1000 | 73 | 990 | 79.2 | 924 | 44.4 | 394 | 26.2 | 91.7 |  | > 1000 | 14.8 | 89.5 | 772 | > 1000
17 | O=C(O)c1nc(-c2ccc(Cl)c(Cl)c2)nc2ccc(Cl)cc12 |  | > 100 |  | > 100 |  | > 100 |  | > 100 |  | > 100 |  | > 100 |  | > 100 |  | > 100 |  | 69.4 |  | 
18 | O=C1NOC(c2ccc(O)cc2)(c2ccc(O)cc2)c2ccccc21 | > 100 | > 100 | > 100 | > 100 | > 100 | > 100 | > 100 | > 100 | > 100 | > 100 |  |  | > 100 | > 100 | > 100 | > 100 | > 100 | > 100 | > 100 | > 100
19 | Cc1[nH]c2ccc(F)cc2c1-c1nc2c3cccnc3c3ncccc3c2[nH]1 | 0.36 | > 100 | 0.418 | > 100 | 0.263 | > 100 | 0.384 | > 100 | 0.244 | > 100 |  |  | 0.305 | > 100 | 0.147 |  | 0.354 | > 100 |  | 
20 | [O-]c1ccccc1/C=N/C(/N=C/c1ccccc1[O-])c1ccccc1O.[O-]c1ccccc1/C=N/C(/N=C/c1ccccc1[O-])c1ccccc1O.[Zr+4] | 17.1 | 78.2 |  |  | 40.8 | > 100 | 13.1 | > 100 | 36.7 | > 100 | 17.8 | > 100 | 34.2 | > 100 |  |  |  |  |  | 
21 | Cn1cc(-c2csc(-c3cn(CCCN4CCCCC4)c4ccccc34)n2)c2cccnc21 | 1.7 | 3.19 | 1.82 | 3.62 |  |  | 1.83 | 3.34 | 1.87 | 3.38 | 1.62 | 3.08 |  |  | 1.82 | 3.61 | 1.59 | 3.14 | 1.66 | 3.11
22 | CCc1ccc2c(c1)C(=O)c1c-2n(CCCN=[N+]=[N-])c(=O)c2cc(OC)c(OC)cc12 | > 100 | > 100 | > 100 | > 100 |  |  | > 100 | > 100 | 47.1 | > 100 | 57.2 | > 100 | 56.2 | > 100 | > 100 | > 100 | 29.9 | > 100 | > 100 | > 100
23 | O=C1/C(=N\O)S(=O)(=O)c2ccccc21 |  |  |  |  |  | > 100 |  | > 100 |  | > 100 |  | > 100 |  | > 100 |  | > 100 |  | > 100 |  | > 100
24 | CC1=C(C(=O)N(C)c2ccc(Cl)c(C(=O)OC(C)C)c2)SCCO1 |  | > 100 |  | > 100 |  | > 100 |  | > 100 |  | > 100 |  | > 100 |  |  |  | > 100 |  |  |  | > 100
25 | CNC(=O)OCc1c2ccncc2c(C)c2c1[nH]c1ccc(OC)cc12 |  | 2.04 |  |  |  | 0.777 |  | 1.93 |  | 0.893 |  | 0.719 |  | 1.07 |  | 2.11 |  |  |  | > 100
26 | COc1ccc(C(=O)/C=C/c2cccc(Nc3ccnc4cc(Cl)ccc34)c2)cc1 |  |  | 1.49 | > 100 | 0.844 | 12.2 | 2.26 | > 100 | 1.74 | 4.82 | 1.7 | 4.3 | 1.44 | 3.99 | 3.85 | > 100 | 1.82 | 5.17 | 1.58 | 11.7
27 | CC(=O)[CH-]C(=O)c1ccccc1.CC(=O)[CH-]C(=O)c1ccccc1.CC(=O)[CH-]C(=O)c1ccccc1.[In+3] | 34.2 | > 100 | 30.9 | > 100 | 9.32 | > 100 | > 100 | > 100 | 22.8 | > 100 | 21.6 | > 100 |  |  | 31.9 | 85.4 | 48.3 | > 100 | 11 | > 100
28 | CC(C)(C)c1[nH]nc2c1C(c1cc3ccccc3[nH]c1=O)Nc1cc(C(=O)OCc3ccccc3)ccc1N2 (configuration not stated) | 2.44 | 6.43 | 5.14 | > 100 | 3.2 | > 100 | 3.28 | > 100 | 3.41 | > 100 | 4.56 | > 100 | 6.37 | > 100 | 3.54 | 10.4 |  |  | 3.35 | > 100
29 | CCOC(=O)C1CCCCN1C(=O)c1ccc(Nc2cnc3cc(C(F)(F)F)ccc3n2)cc1 (configuration not stated) |  |  | 14.7 | 28.6 | 14.9 | 28.1 | 21.3 | 64.1 | 11.3 | 32.2 | 15.8 | 37.1 | 17.6 | 32.5 | 23 | 71.8 | 3.23 | 8.45 | 3.62 | 16.4
30 | c1ccc2[nH]c(-c3cc(-c4ccc5c(c4)OCO5)n[nH]3)nc2c1 | 4.85 | 18.5 | 4.47 | 19.3 | 6.36 | 25.4 | 5.92 | 25.6 | 2.37 | 14.4 | 2.71 | 14.1 | 8.46 | 21.8 | 4.78 | 18.5 | 2.36 | 12.1 |  | 
